Reference: PMC9032233, “2-{5-[(Z,2Z)-2-Chloro-3-(4-nitrophenyl)-2-propenylidene]-4-oxo-2-thioxothiazolidin-3-yl}-3-methylbutanoic Acid as a Potential Anti-Breast Cancer Molecule” (International Journal of Molecular Sciences, 2022)
Values joined by “and” are separate entries in the source; they are usually repeats but may differ in a detail not shown here. Equal values may be shown once. Blank lines part the entries; values can stand above or below the compound they belong to.

Key:
[1] = test system: MDA-MB-231 human breast cancer cells; assay: MTT cell viability assay, MDA-MB-231; type: cell-based; details: MDA-MB-231, MTT, 24 h incubation
Method: (§1) Cell culture MCF-7, MDA-MB-231 human breast cancer cells, and fibroblasts skin cells were purchased from the ATCC—American Type Culture Collection. All cell lines were maintained in DMEM (Corning, Kennebunk, ME, USA). The medium was supplemented with 10% fetal bovine serum—FBS (Eurx, Gdansk, Poland) and 1% antimicrobial substances: penicillin–streptomycin (Corning, Kennebunk, ME, USA). The incubator asserted appropriate growth conditions required for these cell lines: 5% of CO2, at 37 °C, with the humidity between 90–95%. Cells were seeded in 100 mm round dishes. An amount of 0.05% trypsin containing 0.02% EDTA (Corning, Kennebunk, ME, USA) and phosphate-buffered saline (PBS) without calcium and magnesium (Corning, Kennebunk, ME, USA) was used to detach cells from a plate once 80–90% cell confluence was achieved. In the next step, cells were reseeded in six-well plates (density—5 × 10^5 of cells per well) in 1 mL of DMEM after a 24 h incubation used in the presented tests.
(§2) To examine the effect of Les-3331 on cell viability, the MTT assay was performed. […] The absorbance was measured using Spectrophotometer UV-VIS Helios Gamma (Unicam/ThermoFisher Scientific Inc., Waltham, MA, USA) at a wavelength of 570 nm. The obtained absorbance in untreated control cells was taken as 100%, while the survival of the cells incubated with tested compounds presented as a percentage of the control value.

human skin fibroblasts = assay: MTT cell viability assay, skin fibroblasts; type: cell-based; details: Skin fibroblast, 24 h incubation
Method: as §1, §2

[2] = Parallel artificial membrane permeability assay (PAMPA); type: in vitro ADME; details: 200 µM in PBS pH 7.4, 5 h at RT, read-out: permeability coefficient Pe
Method: All in vitro assays used for the evaluation of Les-3331 ADME-Tox parameters were described previously. In brief, for the determination of permeability, Pre-coated PAMPA Plate System Gentest^TM was purchased from Corning (Tewksbury, MA, USA). […] PAMPA plates with compounds added to the donor wells were incubated for 5 h at RT. UPLC-MS Waters ACQUITY—TQD system with the TQ Detector (Waters, Milford, MI, USA) was used next for determination of compounds concentrations in donor and acceptor wells, which were required for calculation of permeability coefficient Pe according to formulas provided by the manufacturer.

[3] = Metabolic stability with rat liver microsomes (RLMs); type: in vitro ADME
Method: The metabolic stability was estimated using rat liver microsomes (RLMs) obtained from Sigma-Aldrich (St. Louis, MO, USA). Les-3331 was incubated in the presence of RLMs and NADPH Regeneration System (Promega, Madison, WI, USA) in Tris-HCl buffer (pH 7.4) for 120 min. Cold ethanol was added next to stop the reaction. The reaction mixture was centrifuged. The aforementioned UPLC-MS device was used to analyze the supernatant. MS/MS ion fragment analyses were performed for Les-3331 and the main metabolite. The in silico prediction of possible Les-3331 metabolic pathways was performed by MetaSite 8.0.1. Software (Molecular Discovery Ltd., Hertfordshire, UK).

CYP3A4 = target: T1, CYP3A4 (Homo sapiens, UniProt P08684); assay: Luminescent CYP3A4 P450-Glo assay; type: in vitro ADME; details: at 10 and 25 µM
T1 construct: purchased Promega (Madison, WI, USA)
T1 sequence (P08684 whole entry): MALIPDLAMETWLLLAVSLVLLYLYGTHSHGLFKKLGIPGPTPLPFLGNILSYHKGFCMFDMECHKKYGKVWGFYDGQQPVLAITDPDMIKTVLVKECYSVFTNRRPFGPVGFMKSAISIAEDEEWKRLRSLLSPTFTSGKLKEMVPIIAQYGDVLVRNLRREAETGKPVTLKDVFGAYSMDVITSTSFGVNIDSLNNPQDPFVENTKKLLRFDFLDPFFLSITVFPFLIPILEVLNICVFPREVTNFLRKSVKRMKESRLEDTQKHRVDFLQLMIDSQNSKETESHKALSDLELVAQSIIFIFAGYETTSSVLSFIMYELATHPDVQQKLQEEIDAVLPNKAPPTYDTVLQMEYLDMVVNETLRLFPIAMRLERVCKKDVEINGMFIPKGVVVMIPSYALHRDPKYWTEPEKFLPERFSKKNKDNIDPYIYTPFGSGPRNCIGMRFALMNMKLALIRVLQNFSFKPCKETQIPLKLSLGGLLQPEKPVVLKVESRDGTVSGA
Method: (§3) For investigation of potential drug-drug interactions, the luminescent CYP3A4 and CYP2D6 P450-Glo assays obtained from Promega® (Madison, WI, USA) were used. Les-3331 was tested in triplicate at the final concentrations from 0.01 to 25 µM according to the protocols provided by Promega®. The reference inhibitors were tested at 1 µM. The luminescent signal was measured using a microplate reader, EnSpire PerkinElmer (Waltham, MA, USA).

CYP2D6 = target: T2, CYP2D6 (Homo sapiens, UniProt P10635); assay: Luminescent CYP2D6 P450-Glo assay; type: in vitro ADME; details: at the highest dose 25 µM
T2 construct: purchased Promega (Madison, WI, USA)
T2 sequence (P10635 whole entry): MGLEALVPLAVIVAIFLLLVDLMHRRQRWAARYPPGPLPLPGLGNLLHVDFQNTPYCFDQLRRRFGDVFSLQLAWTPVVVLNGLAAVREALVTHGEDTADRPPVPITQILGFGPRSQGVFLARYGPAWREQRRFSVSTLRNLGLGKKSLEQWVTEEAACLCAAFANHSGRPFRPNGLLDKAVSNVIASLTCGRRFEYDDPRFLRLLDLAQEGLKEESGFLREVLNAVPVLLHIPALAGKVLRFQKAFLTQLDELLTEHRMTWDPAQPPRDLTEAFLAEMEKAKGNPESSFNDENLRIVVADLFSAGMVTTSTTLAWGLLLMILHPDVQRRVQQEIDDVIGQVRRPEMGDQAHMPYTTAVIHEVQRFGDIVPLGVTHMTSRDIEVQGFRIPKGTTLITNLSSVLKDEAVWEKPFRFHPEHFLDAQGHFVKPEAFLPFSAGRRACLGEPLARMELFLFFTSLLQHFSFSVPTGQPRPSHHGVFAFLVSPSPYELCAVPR
Method: as §3

[4] = test system: Salmonella Typhimurium TA100; details: Ames MPF
Method: The mutagenicity was evaluated using Ames microplate fluctuation protocol (MPF) from Xenometrix (Allschwil, Switzerland). The applied Salmonella Typhimurium TA100 strain was enabled to detect base-pair substitution (hisG46 mutation, for which target is GGG). Les-3331 was tested independently in two final concentrations, 1 and 5 µM, in triplicate. The reference mutagen 4-NQO was tested at 26.3 µM. The occurrence of revertants was visualized using pH indicator dye, which was present in the bacterial medium. The color changes from violet to yellow were confirmed using measurements of absorbance with a microplate reader, EnSpire, at 420 nm. According to the protocols and data sheets provided by Xenometrix, the medium control baseline (MCB) was calculated first, which refers to the number of revertants observed in the control (growth medium + 1% DMSO) plus standard deviation. Next, the Binomial B-value was calculated for tested compounds which indicates the probability that spontaneous mutations occurred. The fold increase ≥2 over the MCB and/or Binomial B-value ≥ 0.99 are considered as the mutagen alert.

IC50 [1]: > 50 µM
SMILES: COc1cc([C@@H]2c3cc4c(cc3[C@@H](O[C@@H]3O[C@@H]5CO[C@@H](C)O[C@H]5[C@H](O)[C@H]3O)[C@H]3COC(=O)[C@H]23)OCO4)cc(OC)c1O [Etoposide, reference compound]

SMILES: CC(C)C(C(=O)O)N1C(=O)/C(=C/C(Cl)=C/c2ccc([N+](=O)[O-])cc2)SC1=S (stereo not shown) [Les-3331, 2-{5-[(Z,2Z)-2-chloro-3-(4-nitrophenyl)-2-propenylidene]-4-oxo-2-thioxothiazolidin-3-yl}-3-methylbutanoic acid]
IC50 [1]: 15.2 µM
IC50 (human skin fibroblasts): 28.5 µM
Papp at 5 h, 200 µM [2]: 0.96 ×10⁻⁶ cm/s
% of the Remaining Substrate ([3]; RLMs, 120 min incubation): 52% and 52.03%
Proposed Metabolic Pathway ([3]; main metabolite M1, RLMs 120 min): decomposition
Proposed Metabolic Pathway ([3]; metabolite M2, RLMs 120 min): decomposition and hydroxylation
Proposed Metabolic Pathway ([3]; metabolite M3, RLMs 120 min): decomposition and dehydrogenation
Proposed Metabolic Pathway ([3]; metabolite M4, RLMs 120 min): decomposition
effect on CYP3A4 activity (CYP3A4): activated
effect on CYP2D6 activity (CYP2D6): slight inhibition
mutagenicity ([4]; TA100, 1 µM): not mutagenic
fold increase in MCB ([4]; TA100, 5 µM): twofold increase in MCB was not reached
